{"source": "patent US11197880B2", "about": "“Use of eriocitrin compositions for increasing GLP-1 levels” (INGREDIENTS BY NATURE, LLC, priority 2019, dated 2021)", "origin": "cited, not measured here", "test_system": "mice (C57BL/6J)", "key": {"[1]": {"settings": "mice (C57BL/6J), eriocitrin 140 mg/kg/day"}, "[2]": {"settings": "mice supplemented with eriocitrin, previous study"}}}
{"compound": "C[C@@H]1O[C@@H](OC[C@H]2O[C@@H](Oc3cc(O)c4c(c3)O[C@H](c3ccc(O)c(O)c3)CC4=O)[C@H](O)[C@@H](O)[C@@H]2O)[C@H](O)[C@H](O)[C@H]1O", "note": "[Eriocitrin, eriodictyol 7-O-B-rutinoside]", "values": [{"measurement": "inflammatory markers (IL-6 and MCP-1)", "setting": "[1]", "value": "decreased inflammatory markers"}, {"measurement": "total antioxidant capacity", "setting": "[1]", "value": "increased total antioxidant capacity"}, {"measurement": "blood glucose", "setting": "[2]", "value": "reduced blood glucose"}, {"measurement": "insulin sensitivity", "setting": "[2]", "value": "improved insulin sensitivity"}]}
